Patent US20200061076A1, “METHODS OF TREATING LEUKODYSTROPHIES” (Ramot at Tel-Aviv University Ltd., priority 2017, published 2020)

Tests used:
Mut MEFs [1] = experiment: Cell survival assay, Crystal violet staining, Mut MEFs; type: cell-based, mouse; details: for Survival (%) ± SEM Mut MEFs: 24 hours, untreated cells set to 100%
Procedure: (§1) Cells were seeded on 96-wells plate at a density of 5000 cells per well. Astrocytes were seeded following coating with 0.001% PDL.

Mut MEFs [2] = experiment: JC1 staining of intact and damaged mitochondria (mitochondrial membrane potential); type: cell-based, mouse
Procedure: Mut MEFs were treated or not for 6 hours with the indicated concentrations of p8G5 (blue), pre084 (purple), or NE-100 (yellow), washed and stained with Hoechst and JC1 for 30 minutes followed by image acquisition using In-Cell-Analyzer-2000. Shown is the % of red/green JC1 integrated intensity per cell relative to that in untreated WT cells of 2-4 independent experiments.
Following, the cells were washed, stained with Hoechst and JC-1 fluorescent dyes for 30 minutes, and subjected to image acquisition using In-Cell-Analyzer-2000. Shown is cellular content of damaged mitochondria (JC1 green channel, red bars), intact mitochondria (JC1 red channel, green bars) and damaged to intact mitochondria ratio (blue bars). Values of control (vehicle treated) cells was set to 100%.
Mut MEFs were treated with the indicated compounds at 10 μM for 24 hours followed by staining with fluorogenic dyes and image-based single-cell analysis. Shown is average effect on ROS level from at least 3-independent experiments ±SEM. […] Mut MEFs were incubated or not for 24 hours with 10 μM of the indicated compound, washed and stained with Crystal Violet. […] Mut MEFs were incubated or not for 24 hours with 10 μM of the indicated compound, washed and stained with JC1 and Hoechst followed by image-based single-cell analysis. Values of untreated cells were set as 100%. Shown is average of at least 3 independent experiments for each parameter compared to its matching control ±SEM. * p<0.05. Putative targets are indicated.
Mut MEFs were incubated or not for 24 hours with 10 μM of the indicated compounds, washed and stained with Hoechst and JC1 followed by image-based single-cell analysis. […] Mut MEFs were incubated or not with the indicated concentrations of the indicated compounds for 2 hours followed by addition of 50 ng/ml Tunicamycin (Tun) for additional 22 hours, stained with Crystal Violet followed by measurement of absorbance at 570 nm.
MEFs were seeded on 1% gelatin-coated 96-wells plate at a density of 5000 cells per well. 24 hours post-plating the cells were incubated with the tested compounds for additional 24 hours. Several DMSO-treated cells (control) were included in each plate at different locations. Following, the cells were stained by addition of fluorogenic dyes for further 30 minutes incubation at 37° C. […] CellROX was used together with Hoechst and CFSE; JC1 was used together with Hoechst. Cells were washed with Hank's balanced salt solution (HBSS) which was used for images acquisition using IN Cell Analyzer 2000 (GE Healthcare, Pitsburgh, Pa., USA). IN Cell Developer Toolbox 1.9.1 software (GE Healthcare) was used for analysis which included cells segmentation using Hoechst and/or CFSE signals. For analysis of JC1 staining, integrated intensity of green and red emissions were used for detection of damaged and intact mitochondria, respectively.

primary OPC = experiment: OPC differentiation assay (IncuCyte); type: cell-based, mouse; details: 1 μM, 60 hours in differentiation medium (FIG. 13)
Procedure: Images were taken every 10 hours followed by analysis using IncuCyte ZOOM software (2016B).
5,000 cells OPCs per well were seeded in a 96 wells plate and maintained overnight in proliferation media (Emery et al. 2013). […] OPC differentiation was monitored by continuous imaging. Images taken at ten hours intervals were analyzed by IncuCyte NeuroTrack software for the following parameters: Neurite length, Neurite branch points, Cell body clusters and Cell body cluster area. Statistics—For all comparisons, Student's t-test was performed using ≥3 independent biological repeats for each group (methodological selection of sample size was not applied).

WT astrocytes = experiment: Cell survival assay, Crystal violet staining, WT astrocytes; type: cell-based, mouse; details: 24 hours, untreated cells set to 100%
Procedure: as §1

Mut astrocytes [3] = experiment: Cell survival assay, Crystal violet staining, Mut astrocytes; type: cell-based, mouse; details: 24 hours, untreated cells set to 100%
Procedure: as §1

Mut MEFs [4] = experiment: mtDNA quantification (qPCR of mitochondrial 12S rRNA and nuclear 18S rRNA genes), MEFs; type: cell-based, mouse
Procedure: DNA extracted from WT and Mut MEFs that were treated or not for 6 hours with 0.1 μM, 1 μM or 10 μM of p8G5 (blue), Pre084 (known SIG-1R agonist, purple), pridopidine (known SIG-1R agonists, green) or NE-100 (known SIG-1R antagonist, yellow) was subjected to qPCR analysis of mitochondrial 12S rRNA and nuclear 18S rRNA genes.

Mut MEFs [5] = experiment: TMRE staining, flow cytometry; type: cell-based, mouse
Procedure: Mut MEFs were treated or untreated with the indicated concentrations of the indicated Sig-1R binders for 6 hours, stained by TMRE for 30 minutes and analyzed by flow cytometry. Shown are flow cytometry histograms and bar graphs representing % mean TMRE fluorescence intensity relative to non-treated WT cells of a representative experiment.
MEFs were seeded at a density of 4×10^4 cells per well in a 24-wells plate. 24 hours post-plating the cells were incubated with the tested compounds for additional 6 hours followed by staining with 200 nM Tetra-Methyl-Rhodamine-Ethyl esterperchlorate (TMRE) (Abcam) for 30 minutes at 37° C. Cells were removed by trypsinyzation, washed and resuspended in PBS. 5-10×10^3 cells were analyzed by Stratedigm S1000EXi cell sorter and FlowJo software (FLOWJO, LLC, Ashland, Oreg., USA).

Mut MEFs [6] = experiment: Oxygen consumption (Seahorse XF Cell Mito Stress Test), MEFs; type: cell-based, mouse; details: for basal respiration and ATP-linked respiration per cell (OCR): 6 hours, normalized to biomass (FIGS. 7A-B); for maximal respiration rate per mitochondrial content: 1 μM, 6 hours (FIG. 8C); for basal and ATP-linked respiration rate per mitochondrial DNA content: 6 hours (FIGS. 8A-B)
Procedure: Mut MEFs were treated or not for 6 hours with the indicated concentrations of the indicated Sig-1R binders. Oxygen consumption was measured in a XF96 Extracellular Flux Analyzer using the Seahorse XF Cell Mito Stress Test Kit. The Basal respiration (FIG. 7A) and ATP-linked respiration (FIG. 7B) data were normalized to biomass as determined by Crystal Violet staining.
Mut MEFs were treated or not for 6 hours with the indicated concentrations of the indicated Sig-1R binders. Oxygen consumption was measured in a XF96 Extracellular Flux Analyzer using the Seahorse XF Cell Mito Stress Test Kit. The Basal respiration (FIG. 8A), ATP-linked respiration (FIG. 8B) and maximal respiration (FIG. 8C) data was normalized to mtDNA content as detailed in FIG. 2.
(§2) The data were normalized to cell number, obtained by Crystal Violet staining, or to mtDNA content.

Mut primary astrocytes [7] = experiment: Oxygen consumption (OCR), primary astrocytes; type: cell-based, mouse; details: 1 or 10 μm, 6 hours, normalized to cell number (FIGS. 17B-C)
Procedure: (§3) Shown is average relative quantity (RQ) of 2-6 independent experiments normalized to their untreated controls ±SEM. […] Values of ATP-linked respiration (FIG. 17B) and maximal respiration (FIG. 17C) were analyzed and normalized to cell number.
as §2

Mut primary astrocytes [8] = experiment: mtDNA quantification, primary astrocytes; type: cell-based, mouse; details: 1 or 10 μm, 6 hours (FIG. 17A)
Procedure: as §3

Mut MEFs [9] = experiment: Survival under Tunicamycin-induced ER stress, Crystal Violet, MEFs; details: 30 μM, 24 hours, Tunicamycin during the last 22 hours (FIGS. 9 and 18)
Procedure: Mut MEFs were treated or not for 24 hours with the indicated concentrations of the indicated Sig-1R binders in the presence of 0.1 μg/ml Tunicamycin (Tun) during the last 22 hours. Following, the cells were washed, fixated and stained with Crystal Violet (CV) followed by measurement of absorbance at 570 nm. Shown is average % of CV staining relative to cells not treated with tunicamycin nor Sig-1R binder ±SEM of 3 independent experiments. *p<0.03.
Following, the cells were washed, fixated and stained with Crystal Violet and absorbance at 570 nm was measured. Data is presented relative to cells of the corresponding genotype not treated with p8G5 nor Tunicamycin. Shown is average % of CV staining ±SEM of 3 independent experiments.
Mut MEFs were treated or not for 24 hours with 10, 20 or 30 μM of the indicated Sig-1R binders in the presence of 50 ng/ml Tunicamycin (Tun) during the last 22 hours. Following, the cells were washed, fixated and stained with Crystal Violet (CV) followed by measurement of absorbance at 570 nm. Shown is % of CV staining relative to cells not treated with tunicamycin nor Sig-1R binder ±SEM of 3 independent experiments, *p<0.05.
Mut MEFs were incubated or not with the indicated concentrations of the indicated compounds for 2 hours followed by addition of 50 ng/ml Tunicamycin (Tun) for additional 22 hours, stained with Crystal Violet followed by measurement of absorbance at 570 nm. Shown is average normalized to Tun-treated cells without any compound ±SEM of 3 independent experiments. * not significant; ** p<0.02; *** all values p<0.04.

Mut astrocytes [10] = experiment: Survival under Tunicamycin-induced ER stress, Crystal Violet, astrocytes; type: cell-based, mouse; details: 30 μM, 50 ng/ml Tunicamycin last 22 hours (FIG. 19)
Procedure: WT and Mut astrocytes were treated or not for 24 hours with 20, 30 or 50 μM of the indicated Sig-1R binders in the presence of 50 ng/ml Tunicamycin (Tun) during the last 22 hours. Following, the cells were washed, fixated and stained with Crystal Violet (CV) followed by measurement of absorbance at 570 nm. Shown is % of CV staining relative to cells not treated with tunicamycin nor Sig-1R binder ±SEM of 3 independent experiments, *p<0.05.
as §1

[11] = Mutant MEFs, 1 μM, 24 hours (FIG. 12)

CC1=C2C[C@H]3[C@@H](CC=C4C[C@@H](O)CC[C@@]43C)[C@@H]2CC[C@]12O[C@@H]1C[C@H](C)CN[C@H]1[C@H]2C [Cyclopamine, reference compound]
Survival (%) ± SEM Mut MEFs (Mut MEFs [1]; 0.1 μM): 92 ± 2.5% | Survival (%) ± SEM Mut MEFs (Mut MEFs [1]; 1 μM): 95 ± 4.1% | Survival (%) ± SEM Mut MEFs (Mut MEFs [1]; 10 μM): 79 ± 1.4% | content of damaged mitochondria (JC1 green channel) (Mut MEFs [2]; [11]): decreased content of damaged mitochondria | content of intact mitochondria (JC1 red channel) (Mut MEFs [2]; [11]): increased content of intact mitochondria | neurite length, neurite branch points, cell body clusters and cell body cluster area (primary OPC): positive effect

CCCN(CCC)CCc1ccc(OC)c(OCCc2ccccc2)c1 [NE100]
Survival (%) ± SEM Mut MEFs (Mut MEFs [1]; 0.1 μM): 99 ± 2.1% | Survival (%) ± SEM Mut MEFs (Mut MEFs [1]; 1 μM): 98 ± 2.2% | Survival (%) ± SEM Mut MEFs (Mut MEFs [1]; 10 μM): 88 ± 3.5% | Survival (%) ± SEM WT astrocytes (WT astrocytes; 0.1 μM): 98 ± 1.8% | Survival (%) ± SEM WT astrocytes (WT astrocytes; 1 μM): 86 ± 1.1% | Survival (%) ± SEM WT astrocytes (WT astrocytes; 10 μM): 79 ± 2.2% | Survival (%) ± SEM Mut astrocytes (Mut astrocytes [3]; 1 μM): 94 ± 4.7% | Survival (%) ± SEM Mut astrocytes (Mut astrocytes [3]; 10 μM): 82 ± 4.3% | Survival (%) ± SEM Mut astrocytes (Mut astrocytes [3]; 30 μM): 65 ± 2.2% | mitochondrial content in Mut MEFs (Mut MEFs [4]; 0.1 μM, 1 μM or 10 μM, 6 hours (FIG. 2)): increased mitochondrial content in a dose dependent manner | TMRE staining (mitochondrial membrane potential) (Mut MEFs [5]; all concentrations, 6 hours (FIG. 5A)): negative effect on TMRE staining | basal respiration and ATP-linked respiration per cell (OCR) (Mut MEFs [6]): negative effect

O=C(OCCN1CCOCC1)C1(c2ccccc2)CCCCC1 [pre084, 2-morpholin-4-ylethyl 1-phenylcyclohexane-1-carboxylate]
Survival (%) ± SEM Mut MEFs (Mut MEFs [1]; 0.1 μM): 100 ± 2.1% | Survival (%) ± SEM Mut MEFs (Mut MEFs [1]; 1 μM): 101 ± 3.5% | Survival (%) ± SEM Mut MEFs (Mut MEFs [1]; 10 μM): 99 ± 1.5% | Survival (%) ± SEM Mut MEFs (Mut MEFs [1]; 20 μM): 97 ± 2.1% | Survival (%) ± SEM Mut MEFs (Mut MEFs [1]; 30 μM): 105 ± 1.9% | Survival (%) ± SEM Mut MEFs (Mut MEFs [1]; 50 μM): 80 ± 2.8% | Survival (%) ± SEM Mut MEFs (Mut MEFs [1]; 100 μM): 57 ± 2.2% | effect on survival of Mut cells (Mut MEFs [1]; as high as 30 μM (FIG. 4, Table 3)): did not have any negative effect on the survival | Survival (%) ± SEM WT astrocytes (WT astrocytes; 1 μM): 114 ± 7.9% | Survival (%) ± SEM WT astrocytes (WT astrocytes; 10 μM): 95 ± 2.3% | Survival (%) ± SEM WT astrocytes (WT astrocytes; 30 μM): 82 ± 1.9% | Survival (%) ± SEM Mut astrocytes (Mut astrocytes [3]; 1 μM): 97 ± 0.5% | Survival (%) ± SEM Mut astrocytes (Mut astrocytes [3]; 10 μM): 93 ± 5.1% | Survival (%) ± SEM Mut astrocytes (Mut astrocytes [3]; 30 μM): 76 ± 4.9% | red/green JC1 signal (mitochondria with high to low membrane potential) (Mut MEFs [2]; Mut MEFs, 1 μM and 10 μM, 6 hours (FIG. 6)): increased the ratio between the content of mitochondria with high to low membrane potential | mitochondrial content in Mut MEFs (Mut MEFs [4]; 0.1 μM-1 μM, 6 hours incubation (FIG. 2)): lowered the abnormal high mitochondrial content | TMRE staining (mitochondrial membrane potential) (Mut MEFs [5]; 1 μM, 6 hours (FIGS. 5A-B)): increased TMRE staining to a level above that of untreated WT cells | maximal respiration rate per mitochondrial content (Mut MEFs [6]): increased the maximal respiration capacity per mitochondria to the level of untreated WT cells | basal and ATP-linked respiration rate per mitochondrial DNA content (Mut MEFs [6]): statistically significant increase | basal respiration and ATP-linked respiration per cell (OCR) (Mut MEFs [6]): no effect | ATP-linked and maximal respiration in mutant astrocytes (Mut primary astrocytes [7]): increased both ATP-linked and maximal respiration | mitochondrial content per cell in astrocytes (Mut primary astrocytes [8]): no effect on mitochondrial content per cell | survival of Mut MEFs under Tunicamycin ER-stress (Mut MEFs [9]): able to rescue mutant MEFs

CCCN1CCC(c2cccc(S(C)(=O)=O)c2)CC1 [pridopidine, 4-(3-(Methylsulfonyl)phenyl)-1-propylpiperidine]
mitochondrial content in Mut MEFs (Mut MEFs [4]; 1 μM-10 μM, 6 hours incubation (FIG. 2)): lowered the abnormal high mitochondrial content | TMRE staining (mitochondrial membrane potential) (Mut MEFs [5]; 10 μM, 6 hours (FIGS. 5A-B)): increased TMRE staining to a level above that of untreated WT cells | maximal respiration rate per mitochondrial content (Mut MEFs [6]): increased the maximal respiration capacity per mitochondria to the level of untreated WT cells | basal and ATP-linked respiration rate per mitochondrial DNA content (Mut MEFs [6]): beneficial effect | ATP-linked and maximal respiration in mutant astrocytes (Mut primary astrocytes [7]): increased both ATP-linked and maximal respiration | mitochondrial content per cell in astrocytes (Mut primary astrocytes [8]): no effect on mitochondrial content per cell | survival rate of Mut astrocytes under ER-stress conditions (Mut astrocytes [10]): increased the survival rate
